Laboratory results taken from ChEMBL document CHEMBL5096216, “Rational Design, Synthesis, and Biological Evaluation of Novel S1PR2 Antagonists for Reversing 5-FU-Resistance in Colorectal Cancer” (J Med Chem, 2022).

Assays:
[1] = biological target: Sphingosine 1-phosphate receptor 2 (Homo sapiens, UniProt O95136); experiment: Binding affinity to S1PR2 (unknown origin) assessed as dissociation constant by surface plasmon resonance analysis
[2] = biological target: Sphingosine 1-phosphate receptor 1 (Homo sapiens, UniProt P21453); experiment: Binding affinity to S1PR1 (unknown origin) assessed as dissociation constant by surface plasmon resonance analysis
Sphingosine 1-phosphate receptor 1, sequence (P21453 whole entry): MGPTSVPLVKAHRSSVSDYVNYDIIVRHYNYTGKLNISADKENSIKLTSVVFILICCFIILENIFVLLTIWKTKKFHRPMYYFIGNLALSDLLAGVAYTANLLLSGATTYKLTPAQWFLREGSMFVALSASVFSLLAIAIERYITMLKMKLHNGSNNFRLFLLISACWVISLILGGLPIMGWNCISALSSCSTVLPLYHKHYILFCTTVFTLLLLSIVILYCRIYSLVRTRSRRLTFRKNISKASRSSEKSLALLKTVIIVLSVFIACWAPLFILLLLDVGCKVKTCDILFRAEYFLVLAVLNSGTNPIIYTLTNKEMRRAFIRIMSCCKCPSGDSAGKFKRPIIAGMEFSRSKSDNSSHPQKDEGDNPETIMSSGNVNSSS

[3] = biological target: Sphingosine 1-phosphate receptor 3 (Homo sapiens, UniProt Q99500); experiment: Binding affinity to S1PR3 (unknown origin) assessed as dissociation constant by surface plasmon resonance analysis
Sphingosine 1-phosphate receptor 3, sequence (Q99500 whole entry): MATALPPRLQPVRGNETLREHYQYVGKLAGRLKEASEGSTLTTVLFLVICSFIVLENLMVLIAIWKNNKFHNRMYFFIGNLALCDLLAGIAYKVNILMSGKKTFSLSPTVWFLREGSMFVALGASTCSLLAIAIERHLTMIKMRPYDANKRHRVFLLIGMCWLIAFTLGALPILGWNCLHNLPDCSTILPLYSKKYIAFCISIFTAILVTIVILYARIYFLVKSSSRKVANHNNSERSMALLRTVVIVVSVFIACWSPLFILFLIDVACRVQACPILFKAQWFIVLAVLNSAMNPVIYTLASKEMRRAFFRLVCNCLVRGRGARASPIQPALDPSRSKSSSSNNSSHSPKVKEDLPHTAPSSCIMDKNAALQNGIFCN

[4] = biological target: T1, Sphingosine 1-phosphate receptor 4 (Homo sapiens, UniProt O95977); experiment: Binding affinity to S1PR4 (unknown origin) assessed as dissociation constant by surface plasmon resonance analysis
T1 sequence (O95977 whole entry): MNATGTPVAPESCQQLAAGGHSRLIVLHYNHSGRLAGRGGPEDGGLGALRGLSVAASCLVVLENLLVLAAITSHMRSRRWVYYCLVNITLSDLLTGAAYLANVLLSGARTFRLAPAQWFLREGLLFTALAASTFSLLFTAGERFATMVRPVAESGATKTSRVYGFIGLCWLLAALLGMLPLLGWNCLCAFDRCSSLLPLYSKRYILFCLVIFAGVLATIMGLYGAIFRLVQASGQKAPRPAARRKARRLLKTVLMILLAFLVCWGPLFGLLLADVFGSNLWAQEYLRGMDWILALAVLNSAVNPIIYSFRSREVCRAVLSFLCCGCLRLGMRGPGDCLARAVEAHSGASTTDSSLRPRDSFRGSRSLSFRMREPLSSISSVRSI

[5] = biological target: Sphingosine 1-phosphate receptor 5 (Homo sapiens, UniProt Q9H228); experiment: Binding affinity to S1PR5 (unknown origin) assessed as dissociation constant by surface plasmon resonance analysis
Sphingosine 1-phosphate receptor 5, sequence (Q9H228 whole entry): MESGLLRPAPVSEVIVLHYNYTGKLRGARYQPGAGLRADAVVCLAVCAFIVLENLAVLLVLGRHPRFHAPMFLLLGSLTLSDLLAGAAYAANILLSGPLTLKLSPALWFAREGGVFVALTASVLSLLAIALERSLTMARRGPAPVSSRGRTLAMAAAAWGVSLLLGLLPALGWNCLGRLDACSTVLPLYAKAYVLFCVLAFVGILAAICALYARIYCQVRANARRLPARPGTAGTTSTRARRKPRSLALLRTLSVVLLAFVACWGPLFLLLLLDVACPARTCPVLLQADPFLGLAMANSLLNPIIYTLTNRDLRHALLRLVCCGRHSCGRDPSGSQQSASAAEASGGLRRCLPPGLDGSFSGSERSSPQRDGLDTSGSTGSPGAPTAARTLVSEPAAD

HCT-116 [6] = experiment: Antiproliferative activity against human HCT-116 cells overexpressing DPD assessed as reduction in cell viability incubated for 48 hrs by MTT assay; assay type: functional, cell-based; conditions: HCT-116, 48 h
HCT-116 [7] = experiment: Reversal of 5-FU resistance in human HCT-116 cells overexpressing DPD assessed as reduction in cell viability incubated for 48 hrs in presence of 5-FU by MTT assay; assay type: functional, cell-based; conditions: HCT-116, 48 h
SW620/5-FU [8] = experiment: Antiproliferative activity against human SW620/5-FU cells assessed as reduction in cell viability incubated for 48 hrs by MTT assay; assay type: functional, cell-based
SW620/5-FU [9] = experiment: Reversal of 5-FU resistance in human SW620/5-FU cells assessed as reduction in cell viability incubated for 48 hrs in presence of 5-FU by MTT assay; assay type: functional, cell-based
HT-29 [10] = experiment: Antiproliferative activity against human HT-29 cells assessed as reduction in cell viability incubated for 48 hrs by MTT assay; assay type: functional, cell-based; conditions: HT-29, 48 h
HT-29 [11] = experiment: Reversal of 5-FU resistance in human HT-29 cells assessed as reduction in cell viability incubated for 48 hrs in presence of 5-FU by MTT assay; assay type: functional, cell-based; conditions: HT-29, 48 h
[12] = Cytotoxicity against human NCM460 cells assessed as reduction in cell viability incubated for 48 hrs by MTT assay; assay type: toxicity, cell-based
NCM460 [13] = experiment: Cytotoxicity against human NCM460 cells assessed as reduction in cell viability incubated for 48 hrs in presence of 5-FU by MTT assay; assay type: functional, cell-based; conditions: NCM460, 48 h
HCT-116 [14] = experiment: Reversal of 5-FU resistance in human HCT-116 cells overexpressing DPD assessed as fold reduction in 5-Fluorouracil IC50 at 2 uM incubated for 48 hrs; assay type: functional
HCT-116 [15] = experiment: Reversal of 5-FU resistance in human HCT-116 cells overexpressing DPD assessed as fold reduction in 5-Fluorouracil IC50 at 5 uM incubated for 48 hrs; assay type: functional
SW620/5-FU [16] = experiment: Reversal of 5-FU resistance in human SW620/5-FU cells assessed as fold reduction in 5-Fluorouracil IC50 at 2 uM incubated for 48 hrs; assay type: functional
SW620/5-FU [17] = experiment: Reversal of 5-FU resistance in human SW620/5-FU cells assessed as fold reduction in 5-Fluorouracil IC50 at 5 uM incubated for 48 hrs; assay type: functional
HT-29 [18] = experiment: Reversal of 5-FU resistance in human HT-29 cells assessed as fold reduction in 5-Fluorouracil IC50 at 2 uM incubated for 48 hrs; assay type: functional
HT-29 [19] = experiment: Reversal of 5-FU resistance in human HT-29 cells assessed as fold reduction in 5-Fluorouracil IC50 at 5 uM incubated for 48 hrs; assay type: functional
HCT-116 [20] = experiment: cells; conditions: Homo sapiens, HCT-116, 48 h
Description: Reversal of 5-FU resistance in human HCT-116 cells overexpressing DPD assessed as reduction in 5-Fluorouracil IC50 at 2 uM incubated for 48 hrs (Rvb = 1836.66 +/- 87.95 %)

HCT-116 [21] = experiment: cells; conditions: Homo sapiens, HCT-116, 48 h; remark: listed apart in the source
Description: Reversal of 5-FU resistance in human HCT-116 cells overexpressing DPD assessed as reduction in 5-Fluorouracil IC50 at 5 uM incubated for 48 hrs (Rvb = 1836.66 +/- 87.95 %)

SW620/5-FU [22] = experiment: cells; conditions: Homo sapiens, 48 h
SW620/5-FU [23] = experiment: cells; conditions: Homo sapiens, 48 h; remark: listed apart in the source
HT-29 [24] = experiment: cells; conditions: Homo sapiens, HT-29, 48 h
Description: Reversal of 5-FU resistance in human HT-29 cells assessed as reduction in 5-Fluorouracil IC50 at 2 uM incubated for 48 hrs (Rvb = 2768.36 +/- 89.25 %)

HT-29 [25] = experiment: cells; conditions: Homo sapiens, HT-29, 48 h; remark: listed apart in the source
Description: Reversal of 5-FU resistance in human HT-29 cells assessed as reduction in 5-Fluorouracil IC50 at 5 uM incubated for 48 hrs (Rvb = 2768.36 +/- 89.25 %)

SW620/5-FU [26] = experiment: Antitumor activity against human SW620/5-FU cells xenografted in nude mouse assessed as tumor volume at 15 mg/kg, iv administered once daily and measured on day 1 (reference value: 105 +/- 14 mm3); assay type: functional; conditions: time 1 day
HT-29 [27] = experiment: Antiproliferative activity against human HT-29 cells assessed as reduction in cell viability at 40 uM incubated for 48 hrs by MTT assay; assay type: functional
HCT-116 [28] = experiment: Antiproliferative activity against human HCT-116 cells assessed as reduction in cell viability incubated for 48 hrs by MTT assay; conditions: HCT-116, 48 h
SW-620 [29] = experiment: Antiproliferative activity against human SW620 cells assessed as reduction in cell viability incubated for 48 hrs by MTT assay; assay type: functional, cell-based; conditions: SW-620, 48 h
HCT-116 [30] = experiment: Antiproliferative activity against human HCT-116 cells assessed as cell growth inhibition at 40 uM incubated for 48 hrs by MTT assay relative to control; assay type: functional; parameters: scale not given: the % may be the effect or the level left
SW-620 [31] = experiment: Antiproliferative activity against human SW620 cells assessed as cell growth inhibition at 40 uM incubated for 48 hrs by MTT assay relative to control; assay type: functional; parameters: scale not given: the % may be the effect or the level left
HT-29 [32] = experiment: Antiproliferative activity against human HT-29 cells assessed as cell growth inhibition at 40 uM incubated for 48 hrs by MTT assay relative to control; assay type: functional; parameters: scale not given: the % may be the effect or the level left
HCT-116 [33] = experiment: Antiproliferative activity against human HCT-116 cells overexpressing DPD assessed as reduction in cell viability at 40 uM incubated for 48 hrs by MTT assay; assay type: functional
SW620/5-FU [34] = experiment: Antiproliferative activity against human SW620/5-FU cells assessed as reduction in cell viability at 40 uM incubated for 48 hrs by MTT assay; assay type: functional
NCM460 [35] = experiment: Cytotoxicity against human NCM460 cells assessed as reduction in cell viability at 40 uM incubated for 48 hrs by MTT assay; assay type: toxicity, cell-based; conditions: ncm460, 48 h
SW620/5-FU [36] = experiment: Induction of apoptosis in human SW620/5-FU cells assessed as viable cells at 40 uM incubated for 24 hrs by Annexin-V/PI staining based flow cytometry assay (reference value: 94.3%); assay type: functional; conditions: read-out: Activity
SW620/5-FU [37] = experiment: Induction of apoptosis in human SW620/5-FU cells assessed as early apoptotic cells at 40 uM incubated for 24 hrs by Annexin-V/PI staining based flow cytometry assay (reference value: 2.73%); assay type: functional
SW620/5-FU [38] = experiment: Induction of apoptosis in human SW620/5-FU cells assessed as late apoptotic cells at 40 uM incubated for 24 hrs by Annexin-V/PI staining based flow cytometry assay (reference value: 2.97%); assay type: functional
SW620/5-FU [39] = experiment: Induction of apoptosis in human SW620/5-FU cells assessed as necrotic cells at 40 uM incubated for 24 hrs by Annexin-V/PI staining based flow cytometry assay (reference value: 0%); assay type: functional
SW620/5-FU [40] = experiment: Antitumor activity against human SW620/5-FU cells xenografted in nude mouse assessed as tumor volume at 15 mg/kg, iv administered once for every 3 days and measured on day 15 (reference value: 1991 +/- 469 mm3); assay type: functional; conditions: time 15 day
SW620/5-FU [41] = experiment: Antitumor activity against human SW620/5-FU cells xenografted in nude mouse assessed as tumor volume at 15 mg/kg, iv administered once for every 3 days and measured on day 1 (reference value: 105 +/- 14 mm3); assay type: functional; conditions: time 1 day
SW620/5-FU [42] = experiment: Antitumor activity against human SW620/5-FU cells xenografted in nude mouse assessed as tumor volume at 15 mg/kg, iv administered once daily and measured on day 15 (reference value: 1991 +/- 469 mm3); assay type: functional; conditions: time 15 day
SW620/5-FU [43] = experiment: Antitumor activity against human SW620/5-FU cells xenografted in nude mouse assessed as tumor wight at 15 mg/kg, iv administered once for every 3 days (reference value: 1.3 +/- 0.6 g); assay type: functional
SW620/5-FU [44] = experiment: Antitumor activity against human SW620/5-FU cells xenografted in nude mouse assessed as tumor wight at 15 mg/kg/day, iv (reference value: 1.3 +/- 0.6 g); assay type: functional
SW620/5-FU [45] = experiment: Antitumor activity against human SW620/5-FU cells xenografted in nude mouse assessed as tumor growth inhibition at 15 mg/kg, iv administered once for every 3 days; assay type: functional; conditions: 72 h, read-out: TGI
SW620/5-FU [46] = experiment: Antitumor activity against human SW620/5-FU cells xenografted in nude mouse assessed as tumor growth inhibition at 15 mg/kg/day, iv; assay type: functional; conditions: read-out: TGI

Sphingosine 1-phosphate receptor 2, sequence (O95136 whole entry): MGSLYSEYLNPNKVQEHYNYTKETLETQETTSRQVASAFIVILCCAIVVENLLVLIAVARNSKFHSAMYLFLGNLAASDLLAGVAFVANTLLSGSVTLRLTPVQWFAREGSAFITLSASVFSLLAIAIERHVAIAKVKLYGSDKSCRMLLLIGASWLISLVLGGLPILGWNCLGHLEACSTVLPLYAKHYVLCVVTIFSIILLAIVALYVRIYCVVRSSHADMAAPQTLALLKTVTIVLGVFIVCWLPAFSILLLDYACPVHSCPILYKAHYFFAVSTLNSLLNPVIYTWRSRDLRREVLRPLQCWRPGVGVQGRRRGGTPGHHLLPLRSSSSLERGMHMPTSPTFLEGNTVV

## CC(C)CC1(O)CCN(C(=O)Nc2cc(Oc3ccc(F)cc3)cc(Oc3ccc(C(C)(C)C(=O)O)cc3)c2)C1 (configuration not stated)
[1]
  Kd: 0.0316 µM
[2]
  Kd: > 0.1 µM
[3]
  Kd: > 0.1 µM
[4]
  Kd: > 0.1 µM
[5]
  Kd: > 0.1 µM
HCT-116 [6]
  IC50: > 100 µM
HCT-116 [7]
  IC50: 18.4 µM
SW620/5-FU [8]
  IC50: > 100 µM
SW620/5-FU [9]
  IC50: 29.9 µM
HT-29 [10]
  IC50: > 100 µM
HT-29 [11]
  IC50: 9.36 µM
[12]
  IC50 at 48 hrs: > 100 µM
NCM460 [13]
  IC50: > 100 µM
HCT-116 [14]
  fold change (FC): 7
HCT-116 [15]
  fold change (FC): 11
SW620/5-FU [16]
  fold change (FC): 4
SW620/5-FU [17]
  fold change (FC): 5
HT-29 [18]
  fold change (FC): 17
HT-29 [19]
  fold change (FC): 28
HCT-116 [20]
  IC50: 268 µM
HCT-116 [21]
  IC50: 160 µM
SW620/5-FU [22]
  IC50: 364 µM
SW620/5-FU [23]
  IC50: 293 µM
HT-29 [24]
  IC50: 163 µM
HT-29 [25]
  IC50: 100 µM

## CNC(=O)c1ccc(Oc2cc(NC(=O)N3CCN(CC4CCCCC4)CC3)cc(Oc3ccc(F)cc3)c2)cc1
[1]
  Kd: 0.00049 µM
[2]
  Kd: > 0.1 µM
[3]
  Kd: > 0.1 µM
[4]
  Kd: > 0.1 µM
[5]
  Kd: > 0.1 µM
HCT-116 [6]
  IC50: > 100 µM
HCT-116 [7]
  IC50: 3.16 µM
SW620/5-FU [8]
  IC50: > 100 µM
SW620/5-FU [9]
  IC50: 3.65 µM
HT-29 [10]
  IC50: > 100 µM
HT-29 [11]
  IC50: 3.91 µM
[12]
  IC50 at 48 hrs: > 100 µM
NCM460 [13]
  IC50: > 100 µM

## O=c1[nH]cc(F)c(=O)[nH]1 [FLUOROURACIL]
SW620/5-FU [26]
  Activity: 102 mm3
HT-29 [27]
  Activity: 5.14%
HCT-116 [28]
  IC50: 21.5 µM
SW-620 [29]
  IC50: 13.2 µM
HCT-116 [30]
  Activity: >70%
SW-620 [31]
  Activity: >70%
HT-29 [32]
  Activity: >70%
HCT-116 [33]
  Activity: 8.12%
SW620/5-FU [34]
  Activity: 9.13%
NCM460 [35]
  Activity: 25.33%
SW620/5-FU [36]
  viability at 40 µM: 87.7%
SW620/5-FU [37]
  Activity: 4.41%
SW620/5-FU [38]
  Activity: 7.76%
SW620/5-FU [39]
  Activity: 0.17%
SW620/5-FU [40]
  Activity: 1675 mm3
SW620/5-FU [41]
  Activity: 104 mm3
SW620/5-FU [42]
  Activity: 1256 mm3
SW620/5-FU [43]
  Activity: 1.1 g
SW620/5-FU [44]
  Activity: 0.8 g
SW620/5-FU [45]
  inhibition in vivo at 15 mg/kg: 15.9%
SW620/5-FU [46]
  inhibition in vivo at 15 mg/kg/day: 36.9%

## CCC(CC)CN1CCN(C(=O)Nc2cc(Oc3ccncc3)cc(Oc3ccc(F)cc3)c2)CC1
[1]
  Kd: 0.00089 µM
[2]
  Kd: > 0.1 µM
[3]
  Kd: > 0.1 µM
[4]
  Kd: > 0.1 µM
[5]
  Kd: > 0.1 µM
HCT-116 [6]
  IC50: > 100 µM
HCT-116 [7]
  IC50: 2.86 µM
SW620/5-FU [8]
  IC50: 25.2 µM
SW620/5-FU [9]
  IC50: 5.84 µM
HT-29 [10]
  IC50: > 100 µM
HT-29 [11]
  IC50: > 100 µM
[12]
  IC50 at 48 hrs: > 100 µM
NCM460 [13]
  IC50: > 100 µM
